The values below come from patent EP4562004B1, “NOVEL 7-SUBSTITUTED INDOLE SULFONAMIDE DERIVATIVES” (F. Hoffmann-La Roche AG, priority 2022, dated 2024).

In the experiment the target is human GPR17 short isoform (Homo sapiens, UniProt Q13304). The experiment can be described thus: GPR17 cAMP assay (antagonist mode, TR-FRET cAMP detection). To be noted: CHO-K1 cells stably expressing human GPR17 short isoform; with EC80 concentration of agonist MDL29,951, IBMX 0.5mM, forskolin 15µM; normalized to reference antagonist; read-out: hGPR17 cAMP IC50. In kind it is cell-based. An outline of the steps: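 Antagonist-mode TR-FRET cAMP read-out (90 min lysis/detection) in CHO-K1 cells carrying human GPR17 short isoform. Compounds with EC80 MDL29,951 agonist and 0.5 mM IBMX, forskolin 15 µM final 5 min later, 30 min room temperature in HBSS/HEPES/BSA pH 7.4. Sigmoidal curves on activity relative to reference antagonist maximum.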
Chain of human GPR17 short isoform (Q13304 29-367): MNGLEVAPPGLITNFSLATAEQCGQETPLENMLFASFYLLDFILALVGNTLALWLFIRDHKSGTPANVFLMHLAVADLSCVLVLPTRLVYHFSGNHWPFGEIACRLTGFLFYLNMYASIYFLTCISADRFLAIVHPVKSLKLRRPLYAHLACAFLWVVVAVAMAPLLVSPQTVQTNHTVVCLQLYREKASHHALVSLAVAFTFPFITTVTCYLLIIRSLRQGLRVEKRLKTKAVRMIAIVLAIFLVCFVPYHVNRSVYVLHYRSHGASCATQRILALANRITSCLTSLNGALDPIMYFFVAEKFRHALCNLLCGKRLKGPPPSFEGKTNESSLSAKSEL
The IC50 is the concentration that inhibits the measured activity by half. Regarding `COc1nc(NS(=O)(=O)c2c[nH]c3c(-n4cccn4)c(Br)ccc23)nc(OC)c1OCC(F)F` [Example 75, 6-bromo-N-[5-(2,2-difluoroethoxy)-4,6-dimethoxy-pyrimidin-2-yl]-7-pyrazol-1-yl-1H-indole-3-sulfonamide], the IC50 turned out to be 42 nM.

For `COc1nc(NS(=O)(=O)c2c[nH]c3c(-n4cccn4)c(C)ccc23)nc(OC)c1OC(F)F` [Example 76, N-[5-(difluoromethoxy)-4,6-dimethoxy-pyrimidin-2-yl]-6-methyl-7-pyrazol-1-yl-1H-indole-3-sulfonamide], the IC50 is 75 nM.

For the compound `COc1nc(NS(=O)(=O)c2c[nH]c3c(-n4cccn4)c(Br)ccc23)nc(OC)c1OC(F)F` [Example 77, 6-bromo-N-[5-(difluoromethoxy)-4,6-dimethoxy-pyrimidin-2-yl]-7-pyrazol-1-yl-1H-indole-3-sulfonamide], the IC50 came to 27 nM.

Regarding `COc1nc(NS(=O)(=O)c2c[nH]c3c(-n4nccn4)c(Cl)ccc23)ncc1CC(F)F` [Example 78, 6-chloro-N-[5-(2,2-difluoroethyl)-4-methoxy-pyrimidin-2-yl]-7-(triazol-2-yl)-1H-indole-3-sulfonamide], the IC50 was determined as 55 nM.

Regarding `[2H]C([2H])(c1cnc(NS(=O)(=O)c2c[nH]c3c(-n4nccn4)c(Cl)ccc23)nc1OC)C(F)F` [Example 79, 6-chloro-N-[5-(1,1-dideuterio-2,2-difluoroethyl)-4-methoxy-pyrimidin-2-yl]-7-(triazol-2-yl)-1H-indole-3-sulfonamide], the IC50 came out at 36 nM.

For `COc1nc(NS(=O)(=O)c2c[nH]c3c(-n4cccn4)c(C)ccc23)nc(OC)c1CC(F)F` [Example 80, N-[5-(2,2-difluoroethyl)-4,6-dimethoxy-pyrimidin-2-yl]-6-methyl-7-pyrazol-1-yl-1H-indole-3-sulfonamide], the IC50 is 29 nM.

In the case of `COc1nc(NS(=O)(=O)c2c[nH]c3c(-n4cccn4)c(Br)ccc23)nc(OC)c1CC(F)F` [Example 81, 6-bromo-N-[5-(2,2-difluoroethyl)-4,6-dimethoxy-pyrimidin-2-yl]-7-pyrazol-1-yl-1H-indole-3-sulfonamide], the IC50 amounted to 18 nM.

Take `COc1nc(NS(=O)(=O)c2c[nH]c3c(-n4cccn4)c(C)ccc23)nc(OC)c1OCCF` [Example 82, N-[5-(2-fluoroethoxy)-4,6-dimethoxy-pyrimidin-2-yl]-6-methyl-7-pyrazol-1-yl-1H-indole-3-sulfonamide]: the concentration for half-maximal inhibition (IC50) is 68 nM.

Take `COc1nc(NS(=O)(=O)c2c[nH]c3c(-n4cccn4)c(Br)ccc23)nc(OC)c1OCCF` [Example 83, 6-bromo-N-[5-(2-fluoroethoxy)-4,6-dimethoxy-pyrimidin-2-yl]-7-pyrazol-1-yl-1H-indole-3-sulfonamide]: the IC50 was determined as 36 nM.

As for `[2H]C([2H])(F)C([2H])([2H])Oc1c(OC)nc(NS(=O)(=O)c2c[nH]c3c(-n4cccn4)c(Br)ccc23)nc1OC` [Example 84, 6-bromo-N-[4,6-dimethoxy-5-(1,1,2,2-tetradeuterio-2-fluoro-ethoxy)pyrimidin-2-yl]-7-pyrazol-1-yl-1H-indole-3-sulfonamide], the IC50 worked out at 26 nM.

With `[2H]C([2H])(F)C([2H])([2H])Oc1c(OC)nc(NS(=O)(=O)c2c[nH]c3c(-n4nccn4)c(Cl)ccc23)nc1OC` [Example 85, 6-chloro-N-[4,6-dimethoxy-5-(1,1,2,2-tetradeuterio-2-fluoro-ethoxy)pyrimidin-2-yl]-7-(triazol-2-yl)-1H-indole-3-sulfonamide], the IC50 was 42 nM.

In the case of `[2H]C([2H])(c1c(OC)nc(NS(=O)(=O)c2c[nH]c3c(-n4cccn4)c(Cl)ccc23)nc1OC)C(F)F` [Example 86, 6-chloro-N-[5-(1,1-dideuterio-2,2-difluoroethyl)-4,6-dimethoxy-pyrimidin-2-yl]-7-pyrazol-1-yl-1H-indole-3-sulfonamide], the IC50 was found to be 44 nM.
